These results are taken from US20090178149A1, “Polyamine Sensors and Methods of Using the Same” (priority 2005, published 2009).

The assay has as its target FLIP-AF1 biosensor (AF1 protein fused to CFP and YFP Venus) (Agrobacterium fabrum, UniProt A9CK51). The following applies: excitation 433 nm, emission 485/528 nm; 20 mM sodium phosphate buffer, pH 7.0.

Chain of FLIP-AF1 biosensor (AF1 protein fused to CFP and YFP Venus) (A9CK51 27-365): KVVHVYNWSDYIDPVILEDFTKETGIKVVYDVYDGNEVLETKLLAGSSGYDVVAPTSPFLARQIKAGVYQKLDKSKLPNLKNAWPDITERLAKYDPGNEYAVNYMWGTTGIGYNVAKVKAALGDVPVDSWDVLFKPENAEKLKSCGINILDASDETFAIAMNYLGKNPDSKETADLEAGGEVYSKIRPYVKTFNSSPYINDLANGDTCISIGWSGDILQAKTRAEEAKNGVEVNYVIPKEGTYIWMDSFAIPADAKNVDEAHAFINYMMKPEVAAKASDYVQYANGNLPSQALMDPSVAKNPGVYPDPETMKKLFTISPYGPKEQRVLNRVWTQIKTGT
Method: A DNA fragment encoding the mature AF1 protein was fused to CFP and the YFP Venus sequence at the N- and C-termini, respectively. Emission spectra and substrate titration curves were obtained by using monochromator microplate reader Safire (Tecan, Austria). Excitation filter was 433/−12 nm, emission filters for CFP and YFP emission were 485/−12, 528 nm/12 nm, respectively. All analyses were done in 20 mM sodium phosphate buffer, pH 7.0.
The FLIP-AF1 biosensor (see SEQ ID Nos. 3 and 4) was titrated against various putrescine concentrations.

`NCCCCN` [putrescine, 1,4-diaminobutane]: the “change in CFP/YFP emission (YFP/CFP ratio) on addition of putrescine” value is reported as “decrease in the YFP/CFP ratio”.
